This note sets out measurements from PubChem BioAssay AID1250 (SRMLSC, 2008).

The nature of this assay: antiviral protection against BTV-induced cell death – arbovirus, BSR cells, confirmation (AID 1250). The note with it: BSR cells, Bluetongue virus CPE, ATP luminescence, 72 h; at 20 µM (top of the series).

Calls of active or inactive are those of the source.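 The calls were made as follows: active = inhibition of at least 30% at one or more tested concentrations; inactive = inhibition below 30% at every dose.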

Turning to `O=C(O)CSc1nc(-c2ccc(Cl)cc2)nc2c1oc1ccccc12`, the CPE inhibition is 24.1% (inactive). With `OCC1(CCOc2ccccc2)CCN(Cc2nc3ccc(F)cc3[nH]2)CC1` the figure was 7.83% (inactive). With `C=CCc1cccc2cc(C(=O)Nc3ccccc3C(=O)O)c(=O)oc12` the figure was 17.4% (inactive); with `CC(C)(O[C@@H]1O[C@H](CO)[C@@H](O)[C@H](O)[C@H]1O)[C@H]1Cc2cc3ccc(=O)oc3cc2O1`, 0.22% (inactive). `C/C(=N\NC(=O)c1ccccc1)c1nc2ccccc2n1C`: the CPE inhibition is -15.5% (inactive). `Cc1cccc(Sc2nc(-c3ccccc3)ncc2C(=O)O)c1`: the CPE inhibition was 7.57% (inactive). With `COc1ccc(-c2csc(Nc3ccc(S(=O)(=O)Nc4cc(C)on4)cc3)n2)cc1`, the CPE inhibition was 14.2% (inactive). As to `COc1ccc(C(=O)Nc2ccccc2C(=O)O)cc1Cl`, the CPE inhibition was 24.1% (inactive). In the case of `O=C(O)CSc1nnc(CNc2cccc(C(F)(F)F)c2)n1Cc1ccco1`, the CPE inhibition is 3.89% (inactive). For `Cn1cc([N+](=O)[O-])c(C(=O)NCc2cc3cc(Cl)ccc3[nH]2)n1`, the CPE inhibition is 9.85% (inactive).

`CCCC1=NN2C(=N)/C(=C\c3cc(C)n(-c4cccc(C)c4)c3C)C(=O)N=C2S1`: the CPE inhibition was 24% (inactive). Turning to `CCOC(=O)c1cnc(SCc2nc(N)nc(Nc3ccc(C)cc3)n2)nc1N`, the CPE inhibition is 29.3% (inactive). Take `COCCn1c(-c2ccccc2Cl)nc2c(c(=O)c3ccccc3n2C)c1=O`: the CPE inhibition was 4.39% (inactive). As for `Cc1[nH]c2ccccc2c1C1=CCNCC1`, the CPE inhibition was 3.08% (inactive).

For the compound `Cc1cccc(OCC(=O)Nc2cccc(C(=O)Nc3ccccc3C(=O)O)c2)c1`, the CPE inhibition was 27.3% (inactive).

Turning to `N#Cc1c(N2C(=O)Nc3ccccc3N2O)sc2c1CCCCCC2`, the CPE inhibition is 19.9% (inactive).

With `CC1=C(C#N)C(=O)NC(=O)/C1=C\c1ccc(-c2cc(C)c(C)cc2[N+](=O)[O-])o1`, the CPE inhibition was 4.65% (inactive).

Turning to `CCOc1ccc(NC(=O)Nc2cc(-c3ccccc3)sc2C(=O)OC)cc1`, the CPE inhibition was 14.7% (inactive). As to `CN(C)Cc1c(O)c(Cl)cc2c3c(c(=O)oc12)CCCC3`, the CPE inhibition was -0.25% (inactive). The figure for `CSC1=NSC2=NC(=O)/C(=C\c3cccs3)C(=N)N12` is 16% (inactive). The figure for `COc1ccccc1N1CCN(Cc2cc(C)c(C)cc2O)CC1` is 25.1% (inactive).

Take `COC(=O)c1ccccc1NC(=O)C1CCN(C(=O)c2cc(OC)c(OC)c(OC)c2)CC1`: the CPE inhibition was 1.96% (inactive).

For `Nc1[nH]nc2nc(NCc3ccccc3)c3c(c12)CCN(Cc1ccccc1)C3`, the CPE inhibition is 10.8% (inactive).

Consider `O=C(O)c1c(NC(=O)c2cccc3ccccc23)sc2c1CCC2`, for which the CPE inhibition was 0.01% (inactive). Take `Cc1ccc(S(=O)(=O)N2CCN(Cc3cc(C(C)C)ccc3O)CC2)cc1`: the CPE inhibition is 15.9% (inactive).

Regarding `CCCS(=O)(=O)n1nc(-c2ccc(OC)cc2OC)cc1N`, the CPE inhibition was -1.58% (inactive).

Turning to `Oc1ccccc1CNCCCNCc1ccccc1O`, the CPE inhibition was 20.8% (inactive). With `COCCn1c(-c2ccc(Cl)cc2)cnc1SCC(=O)NCc1cccs1` the figure was 18.9% (inactive). With `N=C1/C(=C/c2ccc(-c3cccc(C(=O)O)c3)o2)C(=O)N=C2SC=C(c3ccccc3)N12`, the CPE inhibition was 16.8% (inactive). The figure for `C/C(=N\NS(=O)(=O)c1ccccc1)c1cccc(NC(=O)c2cccc(Cl)c2)c1` is 15.9% (inactive); for `COc1ccc(-c2noc(CSc3nc(-c4ccccc4)cc(=O)[nH]3)n2)cc1OC` it is 26.6% (inactive); for `Oc1ccc(Br)cc1-c1cc(-c2ccccc2)n[nH]1` it is 19.6% (inactive). Take `O=C(O)c1ccc(-c2nc(-c3ccc(Cl)cc3)cs2)cc1`: the CPE inhibition was 16.2% (inactive).

Regarding `O=C(O)c1cc(-c2ccc(/C=N/Nc3ccc([N+](=O)[O-])cn3)o2)ccc1Cl`, the CPE inhibition was 21.4% (inactive). With `C(=N\Nc1nc(-c2ccccc2)cs1)/c1ccco1` the figure was 20.9% (inactive).

For `O=C(CSc1ccccc1)Nc1cc(Cl)ccc1Oc1ccccc1`, the CPE inhibition was 3.1% (inactive). For `COCCn1c(SC(C)C(=O)Nc2ncc(Cl)cc2Cl)nc2ccccc21` (configuration not stated), the CPE inhibition was 21% (inactive). With `O=[N+]([O-])c1cc(/C=N\Nc2nc(-c3ccccc3)cs2)ccc1O` the figure was 26.1% (inactive); with `CC1=Nc2ccccc2/C1=C/c1c(N)n2c(S(=O)(=O)C(C)C)nsc2nc1=O`, 19% (inactive).

For the compound `CC1CCN(C2=NC(=O)/C(=C/c3cn[nH]c3-c3ccccc3)S2)CC1`, the CPE inhibition was -2.7% (inactive). On to `CCCc1cc(=O)[nH]c(SCC(=O)NC)n1`, for which the CPE inhibition was -0.15% (inactive).

As for `COc1ccc(CN(C(=O)c2oc3ccccc3c2C)C2CCS(=O)(=O)C2)cc1OC` (configuration not stated), the CPE inhibition is 18.3% (inactive).
